# Data: patent US7968561B2, “Steroidal compounds as steroid sulphatase inhibitors” (Sterix Limited, priority 2006, dated 2011)
# Tests used:
# [1] = Plasma oestradiol concentrations by radioimmunoassay; type: in vivo, mice; conditions: Study 2: once weekly dosing, extended period after cessation of dosing
# Description: (§1) Ovariectomised, athymic female MF-1 nude mice (nu/nu) (age 6-8 weeks) were obtained from Harlan Olac. Twenty four hours before the inoculation of MCF-7STS cells animals were injected s.c. with estradiol sulphate (E2S). On the day of inoculation 5×10^6 MCF-7STS cells (50 μl in Matrigel) were injected s.c. into the right flank of the mice. After cell inoculation mice were injected with E2S (100 μg/50 μl) and received another injection of these steroids 24 h later. Mice then received E2S 3 times per week until the end of the study. When tumours had reached approximately 80 mm^3 dosing was initiated with compounds being administered orally (100 μl; vehicle 10% THF: 90% propylene glycol) at 1 mg/kg. Tumour measurements and the weight of animals were recorded weekly. Samples of tumour and liver tissues together with blood were collected at a number of time points after the cessation of dosing.
# Plasma oestradiol concentrations were measured by a specific radioimmunoassay procedure.
# STS [2] = molecular target: T1, STS (Mus musculus, UniProt P50427); test: Liver STS activity in MCF-7STS xenograft mice; type: in vivo; conditions: Study 2: 1 mg/kg p.o. once per week
# T1 construct: from tissue; host or cells: liver of MF-1 nude mice, homogenate
# T1 sequence (P50427 23-624): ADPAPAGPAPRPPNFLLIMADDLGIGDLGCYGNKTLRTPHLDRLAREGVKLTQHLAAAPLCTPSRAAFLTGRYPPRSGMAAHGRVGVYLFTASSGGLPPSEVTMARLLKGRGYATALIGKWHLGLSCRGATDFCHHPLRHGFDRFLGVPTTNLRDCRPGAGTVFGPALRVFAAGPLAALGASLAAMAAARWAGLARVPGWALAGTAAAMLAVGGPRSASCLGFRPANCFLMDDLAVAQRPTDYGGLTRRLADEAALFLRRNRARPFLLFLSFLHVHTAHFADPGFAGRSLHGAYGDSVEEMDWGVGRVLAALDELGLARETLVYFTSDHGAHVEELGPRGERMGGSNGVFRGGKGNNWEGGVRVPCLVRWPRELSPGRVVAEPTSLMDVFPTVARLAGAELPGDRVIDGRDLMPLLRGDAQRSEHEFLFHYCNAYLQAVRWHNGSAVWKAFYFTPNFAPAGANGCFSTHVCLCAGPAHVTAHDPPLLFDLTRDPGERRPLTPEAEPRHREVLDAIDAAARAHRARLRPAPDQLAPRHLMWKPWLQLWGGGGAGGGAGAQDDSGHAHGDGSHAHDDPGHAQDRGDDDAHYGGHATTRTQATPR
# Description: as §1
# Samples of tumour or liver tissues were homogenised in phosphate buffered saline (pH 7.4 containing 250 mM sucrose). Duplicate aliquots were incubated for 4 h with [^3H-E1S] […] An aliquot of the toluene was removed and the ^3H and ^14C radioactivity measured by liquid scintillation spectrometry. The mass of oestrone sulphate hydrolysed was calculated form the ^3H counts detected, corrected for procedural losses.
# [3] = molecular target: T2, dehydroepiandrosterone sulphatase (DHA-STS) (Rattus norvegicus, UniProt P15589); conditions: administered orally or subcutaneously; cited from earlier work
# T2 construct: host or cells: rat liver
# T2 sequence (P15589 20-577): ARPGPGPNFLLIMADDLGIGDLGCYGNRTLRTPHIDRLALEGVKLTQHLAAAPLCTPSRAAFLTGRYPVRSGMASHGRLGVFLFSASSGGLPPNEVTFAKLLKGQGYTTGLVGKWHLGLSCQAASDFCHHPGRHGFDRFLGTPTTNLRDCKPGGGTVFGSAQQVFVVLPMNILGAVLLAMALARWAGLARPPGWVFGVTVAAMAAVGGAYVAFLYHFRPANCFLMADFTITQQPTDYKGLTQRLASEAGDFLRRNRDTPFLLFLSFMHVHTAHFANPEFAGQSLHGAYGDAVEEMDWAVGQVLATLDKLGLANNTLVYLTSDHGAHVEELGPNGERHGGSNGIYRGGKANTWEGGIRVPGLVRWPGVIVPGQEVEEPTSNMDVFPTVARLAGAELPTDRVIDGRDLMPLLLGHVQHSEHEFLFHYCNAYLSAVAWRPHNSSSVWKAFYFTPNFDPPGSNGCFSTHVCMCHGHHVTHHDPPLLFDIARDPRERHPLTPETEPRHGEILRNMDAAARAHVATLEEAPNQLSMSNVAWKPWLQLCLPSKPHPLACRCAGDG
# [4] = rats; cited from earlier work
# E1-STS [5] = molecular target: T3, E1-STS (Homo sapiens, UniProt P08842); design: dose or concentration left out as unconfirmed; conditions: intact MCF-7 cells; cited from earlier work
# T3 construct: endogenous in cells; host or cells: intact MCF-7 cells
# T3 sequence (P08842 22-583): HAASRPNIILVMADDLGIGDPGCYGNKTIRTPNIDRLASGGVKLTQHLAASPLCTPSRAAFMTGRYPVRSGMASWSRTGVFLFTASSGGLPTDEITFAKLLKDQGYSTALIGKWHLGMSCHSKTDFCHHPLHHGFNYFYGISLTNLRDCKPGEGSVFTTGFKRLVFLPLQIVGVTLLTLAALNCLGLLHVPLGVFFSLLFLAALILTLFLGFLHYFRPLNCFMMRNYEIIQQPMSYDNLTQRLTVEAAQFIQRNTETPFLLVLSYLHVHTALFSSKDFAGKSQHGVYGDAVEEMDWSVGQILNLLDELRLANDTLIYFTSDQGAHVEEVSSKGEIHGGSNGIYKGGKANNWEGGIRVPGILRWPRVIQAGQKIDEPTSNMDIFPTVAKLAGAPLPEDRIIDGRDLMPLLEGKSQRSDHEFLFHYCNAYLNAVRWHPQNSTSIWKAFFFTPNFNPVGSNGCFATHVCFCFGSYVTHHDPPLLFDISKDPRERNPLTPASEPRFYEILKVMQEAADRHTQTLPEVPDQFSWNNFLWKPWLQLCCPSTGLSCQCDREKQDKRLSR
# E1-STS [6] = molecular target: T4, E1-STS (Rattus norvegicus, UniProt P15589); conditions: administered orally or subcutaneously; cited from earlier work
# T4 construct: host or cells: rat liver
# T4 sequence (P15589 20-577): T2 sequence (P15589 20-577)
# steroid sulphatase (STS) = molecular target: T5, steroid sulphatase (STS) (Homo sapiens, UniProt P08842); test: IC50 for steroid sulphatase inhibition measured in JEG-3 cells; type: cell-based
# T5 construct: endogenous in cells; host or cells: JEG-3 cells
# T5 sequence (P08842 22-583): T3 sequence (P08842 22-583)
# STS [7] = molecular target: T6, STS (Rattus norvegicus, UniProt P15589); test: STS activity in rat livers 15 days after a single p.o. dose; type: in vivo; conditions: rat liver
# T6 construct: from tissue; host or cells: rat liver
# T6 sequence (P15589 20-577): T2 sequence (P15589 20-577)
# [8] = tested on: MCF-7STS cells (MCF-7 cells over expressing STS); test: Growth of E2S-stimulated MCF-7STS xenograft tumours in nude mice; type: in vivo; conditions: Study 2: 1 mg/kg p.o. once per week for 7 weeks
# Description: Ovariectomised, athymic female MF-1 nude mice (nu/nu) (age 6-8 weeks) were obtained from Harlan Olac. Twenty four hours before the inoculation of MCF-7STS cells animals were injected s.c. with estradiol sulphate (E2S). On the day of inoculation 5×10^6 MCF-7STS cells (50 μl in Matrigel) were injected s.c. into the right flank of the mice. After cell inoculation mice were injected with E2S (100 μg/50 μl) and received another injection of these steroids 24 h later. Mice then received E2S 3 times per week until the end of the study. […] Tumour measurements and the weight of animals were recorded weekly. Samples of tumour and liver tissues together with blood were collected at a number of time points after the cessation of dosing.
# Tumours were measured weekly and their volumes calculated using the equation length×width^2/2.
# Student's t test was used to assess the significance of the differences in tumour volumes for the different groups.
structure (smiles),measurement,setting,value
"C[C@]12CCC3c4ccc(OS(N)(=O)=O)cc4CCC3C1CC(=O)N(CCC(F)(F)F)C2=O (some centres unmarked) [STX1938, 3-Sulfomoyloxy-N-(3,3,3-trifluoropropyl)-16,17-seco-Estra-1,3,5(10)-triene-16,17-imide]",plasma oestradiol levels,[1],significantly reduced
same,inhibition of liver STS,STS [2],almost complete inhibition
"C[C@]12CC[C@@H]3c4ccc(OS(N)(=O)=O)cc4CC[C@H]3[C@@H]1CCC2=O [EMATE, estrone-3-O-sulfamate]",inhibition of rat liver DHA-STS activity,[3],99%
same,oral uterotrophic activity relative to oestradiol,[4],100 times
same,inhibition of E1-STS activity,E1-STS [5],more than 99%
same,inhibition of rat liver E1-STS activity,E1-STS [6],99%
CCCN1C(=O)CC2C3CCc4cc(OS(N)(=O)=O)ccc4C3CC[C@]2(C)C1=O (some centres unmarked) [STX213],IC50,steroid sulphatase (STS),0.18 nM
same,STS activity recovered,STS [7],69%
same,inhibition of STS activity,STS [7],31%
NS(=O)(=O)Oc1ccc2c3c(c(=O)oc2c1)CCCCC3 [STX64],tumour growth,[8],ineffective
same,reduction of liver STS activity,STS [2],25-50%
